In US20260167623A1 (NIKANG THERAPEUTICS, INC., priority 2022, published 2026) one finds IC50 and DC50 data, which are given here for 17 molecules.

SMILES strings stand for the structures.

Assay [1] addresses T1, CDK2 (Homo sapiens, UniProt P24941).
T1 construct: High-Throughput Measurement of Cellular Endogenous CDK2; endogenous in cells; host or cells: OVCAR3
Briefly: Inhibition of CDK2: phospho-Rb (S807/811) HTRF measurement in OVCAR3 cells, 24 h. It counts as cell-based. Conditions: 24 h compound treatment, read-out: pRB_OVCAR3_24h. Summed up: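 OVCAR3 cells, seeded overnight, were exposed to compounds at 0.3 to 10,000 nM for 24 h, then lysed. Rb S807/811 phosphorylation read by HTRF (665/620 nm ratio) after 4 h detection at room temperature; data normalized to DMSO and IC50 from four-parameter logistic fit.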
Background: TR-FRET usually uses a lanthanide donor and a delayed reading to cut background.

Assay [2] addresses T1, CDK2. As to the kind of experiment: High-throughput HTRF measurement of cellular endogenous CDK2 level (degradation, DC50/Dmax) in OVCAR3 cells, 6 h. The format is cell-based. Conditions: 6 h compound treatment, HTRF total CDK2, read-out: DC50_OVCAR3_6h. The method, then: High-Throughput Measurement of Cellular Endogenous CDK2
Effects of compounds on cellular CDK2 level were monitored by a high-throughput HTRF assay.
To determine half maximal degradation concentration (DC50) and maximum degradation level (Dmax) values of compounds, cellular CDK2 level was measured in 96-well format using HTRF total CDK2 cellular kit (Cat #64CDK2TPEG) from Cisbio.
On Day 1, OVCAR3 cells were seeded into 96-well tissue-culture treated plates at 20,000 cells/well in 200 μL and incubated overnight at 37° C. in CO2 atmosphere. On Day 2 cells were treated with compounds at concentration ranging from 0.03 to 1,000 nM using HP D300 digital dispenser. 6 hours after compound treatment, cell culture media was removed by flicking the plate and tapping the plate against clean paper towel. Immediately 30 μL 1× lysis buffer was supplemented from the kit and added to each well and the plate is incubated at room temperature on shaker for 30 min. After homogenization by pipetting up and down, 8 μL cell lysate from 96-well cell culture plate was transferred to 384-well small volume white detection plate. 2 μL premixed detection solution was added and the plate is covered with sealer. To prepare the detection solution, d2 conjugated-CDK2 antibody and Eu-cryptate conjugated CDK2 antibody were diluted into detection buffer following manufacturer's instruction. Detection plates were incubated overnight at room temperature and read on ClarioStar (BMG Labtech) in TR-FRET mode (665 nM and 620 nM). The TR-FRET ratio (665 nM/620 nM) was plotted against the compound concentration and normalized to DMSO controls (0% degradation) and lysis buffer controls (100% degradation). Half maximal degradation concentration (DC 50) […] were calculated with a four-parameter logistic fit using GraphPad Prism (version 8; La Jolla, CA).
In the table below, AA indicates a DC50 of greater than or equal to 0.5 nM but less than 1 nM; A indicates a DC50 of greater than or equal to 1 nM but less than or equal to 10 nM; B indicates a DC50 of greater than 10 nM but less than or equal to 100 nM; C indicates a DC50 of greater than 100 nM but less than or equal to 1 μM; and D indicates a DC50 of greater than 1 μM […] but less than or equal to 5 μM. NT means not tested.

Turning to `Cn1nc(N2CCC(=O)NC2=O)c2ccc(C3CCN(Cc4cccc(S(=O)(=O)N5CCC(Nc6ncc(Cl)cn6)CC5)c4)CC3(F)F)cc21` (stereo not shown) [Example 33, 1-(6-(1-(3-((4-((5-chloropyrimidin-2-yl)amino)piperidin-1-yl)sulfonyl)benzyl)-3,3-difluoropiperidin-4-yl)-1-methyl-1H-indazol-3-yl)dihydropyrimidine-2,4(1H,3H)-dione], the IC50 in assay [1] fell in the range of 100 to 500 nM. Also, the DC50 in assay [2] lay in the range of 10 to 100 nM.

As to `Cn1nc(N2CCC(=O)NC2=O)c2ccc(C3CCN(Cc4cccc(S(=O)(=O)N5CCC(Nc6ncc(OC(F)F)cn6)CC5)c4)CC3)cc21` [Example 35, 1-(6-(1-(3-((4-((5-(difluoromethoxy)-pyrimidin-2-yl)amino)piperidin-1-yl)sulfonyl)benzyl)piperidin-4-yl)-1-methyl-1H-indazol-3-yl)dihydropyrimidine-2,4(1H,3H)-dione], the IC50 in assay [1] was 1 to 100 nM. Moreover, the DC50 in assay [2] lay within 10 to 100 nM.

For the molecule `CC(c1cccc(S(=O)(=O)N2CCC(Nc3ncc(Cl)cn3)CC2)c1)N1CCC(c2ccc3c(N4CCC(=O)NC4=O)nn(C)c3c2)CC1` (stereo not shown) [Example 38], the IC50 in assay [1] was in the range of 100 to 500 nM. The DC50 in assay [2] was in the range of 10 to 100 nM.

`Cn1nc(N2CCC(=O)NC2=O)c2ccc(C3CCN(CC4CCN(c5cccc(S(=O)(=O)N6CCC(Nc7ncc(C(F)(F)F)cn7)CC6)c5)CC4)CC3)cc21` [Example 40, 1-(1-methyl-6-(1-((1-(3-((4-((5-(trifluoro-methyl)pyrimidin-2-yl)amino)piperidin-1-yl)sulfonyl)phenyl)piperidin-4-yl)methyl)piperidin-4-yl)-1H-indazol-3-yl)dihydropyrimidine-2,4(1H,3H)-dione]: in assay [1], the IC50 is 1 to 100 nM. Moreover, the DC50 in assay [2] lay in the range of 1 to 10 nM.

With `O=C1CCC(N2Cc3cc(N4CCN(Cc5cccc(S(=O)(=O)N6CCC(Nc7ncc(C(F)(F)F)cn7)CC6)c5)CC4)c(F)cc3C2=O)C(=O)N1` (stereo not shown) [Example 42, 3-(6-fluoro-1-oxo-5-(4-(3-((4-((5-(trifluoro-methyl)pyrimidin-2-yl)amino)piperidin-1-yl)sulfonyl)benzyl)piperazin-1-yl)isoindolin-2-yl)piperidine-2,6-dione], the IC50 in assay [1] lay in the range of 1 to 100 nM. Besides, in assay [2], the DC50 was in the range of 1 to 10 nM.

Turning to `O=C1CCC(N2Cc3cc(N4CCN(Cc5cccc(S(=O)(=O)N6CCC(Nc7ncc(OC(F)F)cn7)CC6)c5)CC4)c(F)cc3C2=O)C(=O)N1` (stereo not shown) [Example 43, 3-(5-(4-(3-((4-((5-(difluoromethoxy)-pyrimidin-2-yl)amino)piperidin-1-yl)sulfonyl)benzyl)piperazin-1-yl)-6-fluoro-1-oxoisoindolin-2-yl)piperidine-2,6-dione], in assay [1], the IC50 lay within 100 to 500 nM. For the same molecule, the DC50 in assay [2] is 10 to 100 nM.

With `Cn1c(S(=O)(=O)N2CCC(Nc3ncc(C(F)(F)F)cn3)CC2)cnc1CN1CCC(c2ccc3c(N4CCC(=O)NC4=O)nn(C)c3c2)CC1` [Example 47, 1-(1-methyl-6-(1-((1-methyl-5-((4-((5-(trifluoromethyl)pyrimidin-2-yl)amino)-piperidin-1-yl)sulfonyl)-1H-imidazol-2-yl)methyl)piperidin-4-yl)-1H-indazol-3-yl)dihydropyrimidine-2,4(1H,3H)-dione], the IC50 in assay [1] is 1 to 100 nM. Further, the DC50 in assay [2] was 10 to 100 nM.

`CC(Cc1cccc(S(=O)(=O)N2CCC(Nc3ncc(Cl)cn3)CC2)c1)CN1CCC(c2ccc3c(N4CCC(=O)NC4=O)nn(C)c3c2)CC1` (stereo not shown) [Example 53, 1-(6-(1-(3-(3-((4-((5-chloropyrimidin-2-yl)amino)piperidin-1-yl)sulfonyl)phenyl)-2-methylpropyl)piperidin-4-yl)-1-methyl-1H-indazol-3-yl)dihydropyrimidine-2,4(1H,3H)-dione]: the IC50 in assay [1] fell in the range of 1 to 100 nM. Moreover, the DC50 in assay [2] is 10 to 100 nM.

Turning to `Cn1nc(N2CCC(=O)NC2=O)c2ccc(C3CCN(CC(C)(C)Cc4cccc(S(=O)(=O)N5CCC(Nc6ncc(Cl)cn6)CC5)c4)CC3)cc21` [Example 54, 1-(6-(1-(3-(3-((4-((5-chloropyrimidin-2-yl)amino)piperidin-1-yl)sulfonyl)phenyl)-2,2-dimethylpropyl)piperidin-4-yl)-1-methyl-1H-indazol-3-yl)dihydropyrimidine-2,4(1H,3H)-dione], the IC50 in assay [1] is 1 to 100 nM. Also, in assay [2], the DC50 was in the range of 1 to 10 nM.

With `Cn1nc(N2CCC(=O)NC2=O)c2ccc(C3CCN(CC(C)(C)Cc4cccc(S(=O)(=O)N5CCC(Nc6ncc(C(F)(F)F)cn6)CC5)c4)CC3)cc21` [Example 55, 1-(6-(1-(2,2-dimethyl-3-(3-((4-((5-(trifluoro-methyl)pyrimidin-2-yl)amino)piperidin-1-yl)sulfonyl)phenyl)propyl)piperidin-4-yl)-1-methyl-1H-indazol-3-yl)dihydropyrimidine-2,4(1H,3H)-dione], in assay [1], the IC50 lay in the range of 1 to 100 nM. Besides, in assay [2], the DC50 was 10 to 100 nM.

As for `C=Cc1cnc(NC2CCN(S(=O)(=O)c3cccc(CN4CCC(c5ccc6c(N7CCC(=O)NC7=O)nn(C)c6c5)CC4)c3)CC2)nc1` [Example 58, 1-(1-methyl-6-(1-(3-((4-((5-vinylpyrimidin-2-yl)amino)piperidin-1-yl)sulfonyl)benzyl)-piperidin-4-yl)-1H-indazol-3-yl)dihydropyrimidine-2,4(1H,3H)-dione], the IC50 in assay [1] lay in the range of 100 to 500 nM. Further, the DC50 in assay [2] lay in the range of 1 to 10 nM.

Regarding `CCc1cnc(NC2CCN(S(=O)(=O)c3cccc(CN4CCC(c5ccc6c(N7CCC(=O)NC7=O)nn(C)c6c5)CC4)c3)CC2)nc1` [Example 61, 1-(6-(1-(3-((4-((5-ethylpyrimidin-2-yl)amino)piperidin-1-yl)sulfonyl)benzyl)-piperidin-4-yl)-1-methyl-1H-indazol-3-yl)dihydropyrimidine-2,4(1H,3H)-dione], in assay [1], the IC50 fell in the range of 1 to 100 nM. For the same molecule, the DC50 in assay [2] lay in the range of 10 to 100 nM.

`Cn1nc(N2CCC(=O)NC2=O)c2ccc(C3CCN(Cc4ccc(S(=O)(=O)N5CCC(Nc6ncc(C(F)(F)F)cn6)CC5)cc4)CC3)cc21` [Example 64, 1-(1-methyl-6-(1-(4-((4-((5-(trifluoro-methyl)pyrimidin-2-yl)amino)piperidin-1-yl)sulfonyl)benzyl)piperidin-4-yl)-1H-indazol-3-yl)dihydropyrimidine-2,4(1H,3H)-dione]: in assay [1], the IC50 lay within 1 to 100 nM. In addition, in assay [2], the DC50 lay within 1 to 10 nM.

Regarding `CC(Cc1cccc(S(=O)(=O)N2CCC(Nc3ncc(OC(F)F)cn3)CC2)c1)CN1CCC(c2ccc3c(N4CCC(=O)NC4=O)nn(C)c3c2)CC1` (stereo not shown) [Example 66, 1-(6-(1-(3-(3-((4-((5-(difluoromethoxy)-pyrimidin-2-yl)amino)piperidin-1-yl)sulfonyl)phenyl)-2-methylpropyl)-piperidin-4-yl)-1-methyl-1H-indazol-3-yl)dihydropyrimidine-2,4(1H,3H)-dione], the IC50 in assay [1] lay in the range of 1 to 100 nM. The DC50 in assay [2] fell in the range of 1 to 10 nM.

Turning to `Cn1nc(N2CCC(=O)NC2=O)c2ccc(C3CCN(CC4CCN(c5cccc(S(=O)(=O)N6CCC(Nc7ncc(Cl)cn7)CC6)c5)CC4)CC3)c(Cl)c21` [Example 71, 1-(7-chloro-6-(1-((1-(3-((4-((5-chloro-pyrimidin-2-yl)amino)piperidin-1-yl)sulfonyl)phenyl)piperidin-4-yl)methyl)-piperidin-4-yl)-1-methyl-1H-indazol-3-yl)dihydropyrimidine-2,4(1H,3H)-dione], in assay [1], the IC50 fell in the range of 1 to 100 nM. Further, in assay [2], the DC50 lay in the range of 1 to 10 nM.

Turning to `O=C1CCC(N2Cc3cc(N4CCN(Cc5cccc(S(=O)(=O)N6CCC(Nc7ncc(OC(F)F)cn7)CC6)c5)CC4)c(F)cc3C2=O)C(=O)N1` (stereo not shown) [Example 74, 3-(5-(4-(3-((4-((5-(difluoromethoxy)-pyrimidin-2-yl)amino)piperidin-1-yl)sulfonyl)benzyl)piperazin-1-yl)-6-fluoro-1-oxoisoindolin-2-yl)piperidine-2,6-dione], the IC50 in assay [1] was 100 to 500 nM. For the same molecule, the DC50 in assay [2] lay in the range of 1 to 10 nM.

As for `O=C1CCC(N2Cc3cc(N4CCN(Cc5cccc(S(=O)(=O)N6CCC(Nc7ncc(C(F)(F)F)cn7)CC6)c5)CC4)ccc3C2=O)C(=O)N1` (stereo not shown) [Example 76, 3-(1-oxo-5-(4-(3-((4-((5-(trifluoromethyl)-pyrimidin-2-yl)amino)piperidin-1-yl)sulfonyl)benzyl)piperazin-1-yl)isoindolin-2-yl)piperidine-2,6-dione], the IC50 in assay [1] lay in the range of 1 to 100 nM. Further, the DC50 in assay [2] lay within 1 to 10 nM.
